Experimental data reported in ChEMBL document CHEMBL1201862, “PubChem BioAssay data set” (2004).
Activity calls are given as the source filed them.

What was measured:
[1] = biological target: Eukaryotic translation initiation factor 4H (Homo sapiens, UniProt Q15056); test: eIF4H inhibition in translation initiation, SAR follow-up (AID 435011); format: functional
[2] = biological target: Polyadenylate-binding protein 1 (Homo sapiens, UniProt P11940); test: PABP inhibition in translation initiation, SAR follow-up (AID 435018); format: functional
Sequence of Polyadenylate-binding protein 1 (P11940 whole entry): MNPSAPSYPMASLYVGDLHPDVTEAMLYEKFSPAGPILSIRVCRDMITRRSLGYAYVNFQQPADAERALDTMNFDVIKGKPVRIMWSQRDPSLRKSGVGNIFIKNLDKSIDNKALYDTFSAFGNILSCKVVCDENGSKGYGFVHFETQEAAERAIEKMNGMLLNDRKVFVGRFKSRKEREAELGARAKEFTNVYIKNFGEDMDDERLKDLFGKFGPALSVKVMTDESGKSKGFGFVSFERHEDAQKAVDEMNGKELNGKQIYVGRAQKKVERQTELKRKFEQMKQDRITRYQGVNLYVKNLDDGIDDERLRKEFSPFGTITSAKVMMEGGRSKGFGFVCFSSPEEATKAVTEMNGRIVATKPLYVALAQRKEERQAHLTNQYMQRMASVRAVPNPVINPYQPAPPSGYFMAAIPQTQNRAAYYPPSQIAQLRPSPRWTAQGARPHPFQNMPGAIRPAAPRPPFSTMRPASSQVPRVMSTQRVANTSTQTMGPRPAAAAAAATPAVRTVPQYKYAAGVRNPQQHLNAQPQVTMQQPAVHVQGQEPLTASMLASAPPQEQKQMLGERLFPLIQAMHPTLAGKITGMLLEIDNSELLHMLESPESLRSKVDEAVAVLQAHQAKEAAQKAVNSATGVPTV

[3] = biological target: DNA dC->dU-editing enzyme APOBEC-3A (Homo sapiens, UniProt P31941); test: Dose Response confirmation of small molecule APOBEC3A DNA Deaminase Inhibitors via a fluorescence-based single-stranded DNA deaminase assay. [Related pubchem assays (depositor defined):AID493011, AID493024]; format: functional
Sequence of DNA dC->dU-editing enzyme APOBEC-3A (P31941 whole entry): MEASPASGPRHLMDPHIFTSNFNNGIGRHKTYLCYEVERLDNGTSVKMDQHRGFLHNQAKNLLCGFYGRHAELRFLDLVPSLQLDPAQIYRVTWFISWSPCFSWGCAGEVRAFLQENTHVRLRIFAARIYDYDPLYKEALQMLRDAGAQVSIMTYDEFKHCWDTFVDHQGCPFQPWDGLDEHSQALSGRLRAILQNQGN

[4] = biological target: DNA dC->dU-editing enzyme APOBEC-3G (Homo sapiens, UniProt Q9HC16); format: functional;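 note: Dose-response counterscreen measuring inhibition of APOBEC3G DNA deaminase activity, run while confirming APOBEC3A inhibitors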
Sequence of DNA dC->dU-editing enzyme APOBEC-3G (Q9HC16 whole entry): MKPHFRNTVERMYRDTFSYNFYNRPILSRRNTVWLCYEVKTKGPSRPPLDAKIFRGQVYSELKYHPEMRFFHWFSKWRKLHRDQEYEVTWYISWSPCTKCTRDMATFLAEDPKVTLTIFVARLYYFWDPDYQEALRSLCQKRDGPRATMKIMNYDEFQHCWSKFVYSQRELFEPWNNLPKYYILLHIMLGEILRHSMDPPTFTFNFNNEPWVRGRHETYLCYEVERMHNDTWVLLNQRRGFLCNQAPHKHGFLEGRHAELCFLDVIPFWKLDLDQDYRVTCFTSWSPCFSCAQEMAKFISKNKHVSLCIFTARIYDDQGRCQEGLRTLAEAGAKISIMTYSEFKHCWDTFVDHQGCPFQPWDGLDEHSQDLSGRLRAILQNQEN

[5] = microbe, parasite or virus in culture; format: functional; details: Mycobacterium tuberculosis
[6] = biological target: NACHT, LRR and PYD domains-containing protein 3 (Homo sapiens, UniProt Q96P20); test: NALP3 inhibitors in yeast, dose response, luminescent (AID 488799); format: functional
Sequence of NACHT, LRR and PYD domains-containing protein 3 (Q96P20 whole entry, the tested form may be a part): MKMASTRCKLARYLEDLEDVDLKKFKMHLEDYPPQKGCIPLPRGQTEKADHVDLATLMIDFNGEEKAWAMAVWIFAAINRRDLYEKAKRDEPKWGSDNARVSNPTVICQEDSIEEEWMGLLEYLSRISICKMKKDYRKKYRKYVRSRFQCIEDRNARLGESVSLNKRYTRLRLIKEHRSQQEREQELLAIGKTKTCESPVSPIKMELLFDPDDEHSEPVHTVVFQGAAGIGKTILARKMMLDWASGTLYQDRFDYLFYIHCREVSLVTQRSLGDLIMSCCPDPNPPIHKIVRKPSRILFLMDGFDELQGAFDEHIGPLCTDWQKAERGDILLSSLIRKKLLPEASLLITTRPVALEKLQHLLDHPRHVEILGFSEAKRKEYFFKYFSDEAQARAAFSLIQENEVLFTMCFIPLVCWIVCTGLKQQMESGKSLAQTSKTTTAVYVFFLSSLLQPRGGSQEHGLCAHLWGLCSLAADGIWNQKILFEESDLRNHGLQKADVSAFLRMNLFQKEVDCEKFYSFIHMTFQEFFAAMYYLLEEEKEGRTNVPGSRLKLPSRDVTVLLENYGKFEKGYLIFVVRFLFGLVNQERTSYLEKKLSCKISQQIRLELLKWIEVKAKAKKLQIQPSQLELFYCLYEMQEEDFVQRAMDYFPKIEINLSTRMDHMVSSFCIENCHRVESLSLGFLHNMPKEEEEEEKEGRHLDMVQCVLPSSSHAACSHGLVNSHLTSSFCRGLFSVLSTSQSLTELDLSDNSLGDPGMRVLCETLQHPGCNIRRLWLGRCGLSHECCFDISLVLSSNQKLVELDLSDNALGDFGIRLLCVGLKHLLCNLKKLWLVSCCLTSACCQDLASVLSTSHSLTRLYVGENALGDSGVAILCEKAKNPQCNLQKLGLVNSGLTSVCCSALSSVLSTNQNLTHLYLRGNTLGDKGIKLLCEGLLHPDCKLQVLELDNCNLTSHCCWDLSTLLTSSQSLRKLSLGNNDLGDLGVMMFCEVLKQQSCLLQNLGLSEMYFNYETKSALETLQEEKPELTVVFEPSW

Nonstructural protein 1 = Nonstructural protein 1 (Influenza A virus, UniProt Q194T2); format: functional, Influenza A virus (A/California/07/2009(H1N1))
Sequence of Nonstructural protein 1 (Q194T2 whole entry): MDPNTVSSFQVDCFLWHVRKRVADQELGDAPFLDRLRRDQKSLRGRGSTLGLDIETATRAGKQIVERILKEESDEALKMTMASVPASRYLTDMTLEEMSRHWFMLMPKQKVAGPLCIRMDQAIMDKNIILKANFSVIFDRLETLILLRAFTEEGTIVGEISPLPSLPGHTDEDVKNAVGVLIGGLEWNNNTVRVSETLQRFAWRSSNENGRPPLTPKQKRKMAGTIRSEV

[7] = inhibitors of intracellular T. cruzi replication, confirmation, NIH3T3 host cells, beta-gal luminescence (AID 2044); format: functional, cell-based;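 note: intracellular parasites grown in NIH/3T3 mouse fibroblasts as host cells; luminescent beta-galactosidase reporter signal from transgenic T. cruzi replicating inside host cells; inhibitors lower the luminescence signal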
Mucolipin-3 = biological target: T1, Mucolipin-3 (Homo sapiens, UniProt Q8TDD5); test: Dose response cell-based high-throughput screening assay for agonists of the transient receptor potential channel ML3 (TRPML3). [Related pubchem assays: 1526, 1424, 1448 ]; format: functional
T1 sequence (Q8TDD5 whole entry): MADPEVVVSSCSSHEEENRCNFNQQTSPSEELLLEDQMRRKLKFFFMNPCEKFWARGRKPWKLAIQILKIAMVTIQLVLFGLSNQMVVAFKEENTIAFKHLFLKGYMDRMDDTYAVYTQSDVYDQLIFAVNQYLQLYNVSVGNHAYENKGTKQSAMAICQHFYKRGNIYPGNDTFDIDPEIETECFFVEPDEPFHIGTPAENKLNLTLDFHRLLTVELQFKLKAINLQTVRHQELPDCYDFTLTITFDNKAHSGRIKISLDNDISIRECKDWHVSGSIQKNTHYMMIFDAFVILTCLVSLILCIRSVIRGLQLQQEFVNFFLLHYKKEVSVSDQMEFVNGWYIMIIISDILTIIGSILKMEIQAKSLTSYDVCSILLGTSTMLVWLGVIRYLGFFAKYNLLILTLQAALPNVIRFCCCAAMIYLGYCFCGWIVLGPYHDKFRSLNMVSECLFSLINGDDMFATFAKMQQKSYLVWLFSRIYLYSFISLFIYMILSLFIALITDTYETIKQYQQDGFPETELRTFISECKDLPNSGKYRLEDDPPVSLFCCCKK

[8] = cytotoxicity toward NIH3T3 fibroblasts, dose response, counter-screen, cell-based, ATP luminescence, mouse fibroblasts (AID 2010); format: functional;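 note: cells exposed to compound for about 90 hours before reading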
Ion channel NompC = Ion channel NompC (Danio rerio, UniProt Q7T1G6); test: Fluorescence counterscreen assay for TRPML3 agonists: dose response cell-based high-throughput screening assay to identify agonists of the transient receptor potential channel N1 (TRPN1). [Related pubchem assays: 1526, 1424, 1448 ]; format: functional
Sequence of Ion channel NompC (Q7T1G6 whole entry): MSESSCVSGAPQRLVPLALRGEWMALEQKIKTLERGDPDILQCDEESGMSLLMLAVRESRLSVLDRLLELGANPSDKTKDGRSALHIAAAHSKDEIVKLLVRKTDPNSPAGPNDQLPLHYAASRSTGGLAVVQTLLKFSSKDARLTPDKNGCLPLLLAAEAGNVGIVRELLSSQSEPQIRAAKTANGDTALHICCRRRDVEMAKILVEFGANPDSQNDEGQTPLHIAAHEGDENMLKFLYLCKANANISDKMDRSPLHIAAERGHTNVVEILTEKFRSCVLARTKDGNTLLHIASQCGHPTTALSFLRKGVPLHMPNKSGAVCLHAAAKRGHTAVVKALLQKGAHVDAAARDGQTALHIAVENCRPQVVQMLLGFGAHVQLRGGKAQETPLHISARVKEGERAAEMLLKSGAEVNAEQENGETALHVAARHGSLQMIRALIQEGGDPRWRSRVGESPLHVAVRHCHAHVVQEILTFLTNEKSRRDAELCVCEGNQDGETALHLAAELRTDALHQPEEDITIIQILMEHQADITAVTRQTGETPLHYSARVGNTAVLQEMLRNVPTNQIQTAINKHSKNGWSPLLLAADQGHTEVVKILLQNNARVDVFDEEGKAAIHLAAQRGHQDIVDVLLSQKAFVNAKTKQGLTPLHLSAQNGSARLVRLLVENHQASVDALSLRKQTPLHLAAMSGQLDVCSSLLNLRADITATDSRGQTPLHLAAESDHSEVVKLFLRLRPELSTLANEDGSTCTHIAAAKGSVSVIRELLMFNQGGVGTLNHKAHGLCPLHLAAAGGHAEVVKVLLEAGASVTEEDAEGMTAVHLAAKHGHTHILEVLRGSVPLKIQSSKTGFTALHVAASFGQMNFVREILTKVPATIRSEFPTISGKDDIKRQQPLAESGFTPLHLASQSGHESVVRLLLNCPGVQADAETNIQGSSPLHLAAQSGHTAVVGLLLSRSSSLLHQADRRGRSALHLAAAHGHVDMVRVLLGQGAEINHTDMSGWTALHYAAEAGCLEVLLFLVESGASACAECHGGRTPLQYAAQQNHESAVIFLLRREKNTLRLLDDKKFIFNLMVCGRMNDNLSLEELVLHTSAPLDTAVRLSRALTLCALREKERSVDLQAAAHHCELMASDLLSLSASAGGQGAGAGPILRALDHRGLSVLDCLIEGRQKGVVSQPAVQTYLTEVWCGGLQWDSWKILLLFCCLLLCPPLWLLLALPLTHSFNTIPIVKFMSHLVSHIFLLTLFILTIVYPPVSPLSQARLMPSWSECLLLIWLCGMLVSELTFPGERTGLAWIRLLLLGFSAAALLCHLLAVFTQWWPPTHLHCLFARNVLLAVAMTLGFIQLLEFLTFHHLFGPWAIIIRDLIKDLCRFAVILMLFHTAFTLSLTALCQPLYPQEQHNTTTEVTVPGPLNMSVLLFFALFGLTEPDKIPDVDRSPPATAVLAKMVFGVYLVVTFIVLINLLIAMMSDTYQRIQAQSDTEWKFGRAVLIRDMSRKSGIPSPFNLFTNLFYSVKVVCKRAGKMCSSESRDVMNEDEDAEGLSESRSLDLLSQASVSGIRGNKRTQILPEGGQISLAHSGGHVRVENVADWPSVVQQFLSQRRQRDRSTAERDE

[9] = biological target: T2, Luciferin 4-monooxygenase (Photinus pyralis, UniProt P08659); test: Counter Screen for Luciferase-based Assay Positives. [Related pubchem assays: 620, 618, 411 ]
T2 sequence (P08659 whole entry): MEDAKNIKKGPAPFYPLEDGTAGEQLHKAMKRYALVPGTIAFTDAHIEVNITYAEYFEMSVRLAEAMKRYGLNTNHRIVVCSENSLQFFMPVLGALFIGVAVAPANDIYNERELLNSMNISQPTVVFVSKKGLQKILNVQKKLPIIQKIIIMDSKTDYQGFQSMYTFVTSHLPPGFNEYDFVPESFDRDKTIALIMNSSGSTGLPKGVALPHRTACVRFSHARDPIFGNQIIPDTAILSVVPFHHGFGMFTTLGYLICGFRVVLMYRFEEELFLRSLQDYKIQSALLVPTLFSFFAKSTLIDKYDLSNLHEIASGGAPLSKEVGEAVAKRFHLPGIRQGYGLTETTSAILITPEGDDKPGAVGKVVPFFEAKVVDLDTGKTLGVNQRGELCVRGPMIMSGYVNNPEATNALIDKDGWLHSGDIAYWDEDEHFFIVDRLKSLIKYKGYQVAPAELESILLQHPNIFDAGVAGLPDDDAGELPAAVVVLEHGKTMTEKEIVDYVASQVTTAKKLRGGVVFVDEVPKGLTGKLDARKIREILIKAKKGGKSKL

[10] = biological target: T2, Luciferin 4-monooxygenase; test: firefly luciferase enzyme inhibitors, dose response, biochemical, luminescence (AID 1891)
[11] = Luminescence Cell-Based Dose Confirmation HTS to Identify Inhibitors of Platelet Dense Granule Release. [Related pubchem assays: 1663 (Primary HTS), 1678 (Summary of Project)]; format: functional
HT-1080 = test: cytotoxicity in HT1080 fibrosarcoma cells, cell-based, fluorescence readout (AID 620); format: functional; details: Homo sapiens
[12] = biological target: T3, Short transient receptor potential channel 4 (Mus musculus, UniProt Q9QUQ5); test: TRPC4 positive allosteric modulators, dose response, cell-based, HEK293 TRPC4/mu-opioid, Fluo-4 calcium, EC20 DAMGO (AID 434941); format: functional
T3 sequence (Q9QUQ5 whole entry): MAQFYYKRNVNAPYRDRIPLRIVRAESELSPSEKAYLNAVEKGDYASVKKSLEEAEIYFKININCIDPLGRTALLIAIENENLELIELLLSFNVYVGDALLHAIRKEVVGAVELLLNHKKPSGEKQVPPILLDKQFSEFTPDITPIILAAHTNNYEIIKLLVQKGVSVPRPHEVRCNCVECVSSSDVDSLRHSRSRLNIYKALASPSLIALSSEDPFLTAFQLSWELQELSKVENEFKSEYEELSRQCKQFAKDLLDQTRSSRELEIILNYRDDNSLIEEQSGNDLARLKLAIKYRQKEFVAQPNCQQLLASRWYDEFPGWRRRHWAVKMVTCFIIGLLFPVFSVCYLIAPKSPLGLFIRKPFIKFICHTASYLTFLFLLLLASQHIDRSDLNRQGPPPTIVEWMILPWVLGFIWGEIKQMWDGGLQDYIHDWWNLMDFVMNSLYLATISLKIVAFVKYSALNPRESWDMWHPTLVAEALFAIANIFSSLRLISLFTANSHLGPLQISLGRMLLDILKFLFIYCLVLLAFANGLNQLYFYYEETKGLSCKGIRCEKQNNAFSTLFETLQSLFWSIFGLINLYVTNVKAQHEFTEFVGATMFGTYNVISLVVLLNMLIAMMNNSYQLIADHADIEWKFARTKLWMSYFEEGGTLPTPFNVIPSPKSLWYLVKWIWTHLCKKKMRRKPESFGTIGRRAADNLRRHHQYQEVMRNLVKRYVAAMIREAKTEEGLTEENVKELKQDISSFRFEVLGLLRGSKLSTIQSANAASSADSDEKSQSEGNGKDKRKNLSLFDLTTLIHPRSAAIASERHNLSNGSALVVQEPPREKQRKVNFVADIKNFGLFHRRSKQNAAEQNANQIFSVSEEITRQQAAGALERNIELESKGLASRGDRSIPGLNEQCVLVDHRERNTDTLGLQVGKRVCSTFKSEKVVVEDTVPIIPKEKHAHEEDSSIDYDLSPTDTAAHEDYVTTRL

[13] = system: Streptococcus sp. 'group A'; test: growth inhibition of control SK(-) GAS strain, dose response, counter-screen for streptokinase expression inhibitor project, luminescence, kanamycin, BacTiterGlo, confirmation (AID 1900); format: functional, organism-based
Streptokinase A = biological target: T4, Streptokinase A (Streptococcus pyogenes serotype M1, UniProt P10520); test: S. pyogenes streptokinase expression inhibitors, potency, dose response, plasminogen activation absorbance, OD405 (AID 1914); format: functional, Streptococcus pyogenes M1 GAS;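 note: secreted streptokinase activity via plasminogen activation per viability signal from cell pellet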
T4 sequence (P10520 whole entry): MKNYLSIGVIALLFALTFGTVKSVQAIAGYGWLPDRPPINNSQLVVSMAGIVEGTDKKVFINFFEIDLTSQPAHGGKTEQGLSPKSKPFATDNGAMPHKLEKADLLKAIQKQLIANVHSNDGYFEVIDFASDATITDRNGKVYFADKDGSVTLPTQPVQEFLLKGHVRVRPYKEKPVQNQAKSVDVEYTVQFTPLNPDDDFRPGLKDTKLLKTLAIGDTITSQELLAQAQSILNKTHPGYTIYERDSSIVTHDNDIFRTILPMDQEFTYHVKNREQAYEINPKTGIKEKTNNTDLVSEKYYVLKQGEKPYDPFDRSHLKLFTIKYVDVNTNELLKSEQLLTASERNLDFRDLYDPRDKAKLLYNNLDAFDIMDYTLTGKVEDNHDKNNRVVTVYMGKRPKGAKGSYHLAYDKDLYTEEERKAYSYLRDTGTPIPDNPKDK

Streptococcus = test: Group A Streptococcus viability loss, dose response, counter-screen for streptokinase expression inhibitor project, luminescence, BacTiterGlo (AID 1915); format: functional, organism-based;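 note: potency for reduction of bacterial viability or growth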
[14] = THP-1 cell cytotoxicity, dose response, cytotoxicity control for non-replicating M. tuberculosis project (AID 489025); format: functional
[15] = HepG2 cell cytotoxicity, dose response, cytotoxicity control for non-replicating M. tuberculosis project (AID 489018); format: functional; details: Mycobacterium tuberculosis
[16] = Vero E6 cell cytotoxicity, dose response, cytotoxicity control for non-replicating M. tuberculosis project, secondary assay (AID 492998); format: functional, VeroE6; details: Vero C1008
cells = format: functional
INS1 = test: beta cell apoptosis inhibitors, cytokine rescue, dose response, luminescence, retest (AID 449756); format: functional, cell-based; details: Rattus norvegicus;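 note: cell death triggered by IL-1 beta plus TNF-alpha plus IFN-gamma mixture; protective hits raise ATP signal compared with cytokine alone wells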
[17] = biological target: T3, Short transient receptor potential channel 4; test: mouse TRPC4 channel activators, dose response, cell-based, HEK293 TRPC4/mu-opioid, Fluo-4 calcium (AID 434937); format: functional
Vero = test: cells; format: functional; details: Chlorocebus sabaeus

With `Cc1ccc(C)c(NC(=O)C2CCN(C(=O)c3cccs3)CC2)c1` the IC50 [1] was > 100 µM (inactive) and the IC50 [2] was > 100 µM (inactive).
With `CN(C)CC1CCCCC1OC(=O)Cc1ccc(Cl)c([N+](=O)[O-])c1` (stereo unspecified) the IC50 [3] was 2.81 µM (active) and the IC50 [4] was 4.69 µM (active).
With `C=CCc1c(C)nc(C)nc1N/N=C/c1ccccc1O` the CC50 [5] was > 40 µM (active), the IC50 [6] was 45.5 µM (active) and the IC50 (Nonstructural protein 1) was 18.4 µM (active).
For `CCOc1ccc(S(=O)(=O)NC(C)(C)C)cc1-c1nc(O)c2c(n1)c(C(C)(C)C)nn2C`, the EC50 [7] was 1.26 µM (active), the EC50 (Mucolipin-3) was 0.781 µM (active) and the EC50 [8] was 8.45 µM (active). For the same compound, the EC50 (Ion channel NompC) was > 29.9 µM (not active).
With `COc1ccc(C(=O)/C=C/Nc2cccc(O)c2)cc1` the EC50 [9] was 0.25 µM (active), the EC50 [10] was 0.793 µM (active) and the EC50 [11] was 5.26 µM (active). For the same compound, the EC50 (HT-1080) was > 50 µM (not active).
For `CNc1nc(N2CCc3ccccc32)ncc1F`, the EC50 [12] was 0.75 µM (active).
In the case of `COc1ccccc1/C=N\Nc1cc(C)nc(-n2nc(C)cc2C)n1`, the EC50 [13] is reported as 7.45 µM (active), the EC50 (Streptokinase A) is reported as > 150 µM (not active) and the EC50 (Streptococcus) is reported as 16.1 µM (active). The CC50 [14] was 5.71 µM (active), the CC50 [15] was 18.3 µM (active) and the CC50 [16] was 7.06 µM (active). The IC50 (cells) was < 0.1 µM (active) and the AC50 (INS1) was 2.92 µM (active).
With `CN(C)CCNc1ccc(Cl)cc1[N+](=O)[O-]` the EC50 [12] was 0.01 µM (active).
With `Cc1nc(N/C(N)=N/C(=O)NC2CCCCC2)nc2ccccc12` the CC50 [14] was 16.9 µM (active), the CC50 [15] was 17.7 µM (active) and the CC50 [16] was 13.3 µM (active). For the same compound, the EC50 [17] was 0.0667 µM (active), the IC50 (cells) was 3.25 µM (active) and the CC50 (Vero) was 19.2 µM (active).
